{"source": "patent US20150353982A1", "about": "“MICRO-EVOLUTION OF MICROBES” (priority 2012, published 2015)", "key": {"[1]": {"tested_on": "Arthrospira platensis (CCMP1295)", "test": "Toxicology assay over 72 hours (BS EN ISO 10253:2006), reduction in specific growth rate", "type": "cell-based", "procedure": "Toxicology assays and EC50 calculations for copper were performed on Arthrospira platensis (CCMP1295). Assessments were performed under aseptic conditions in 2 stages through an initial range-finding assay (data not shown) using CuSO4 solutions to detect the region of the EC50, followed by a final toxicology assay over 72 hours following British Standard BS EN ISO 10253:2006 [15] with ECso determination where inhibition is measured as a reduction in specific growth rate, relative to control cultures grown under identical conditions. Visual analysis was also performed to assess the effects of metal toxicity on morphology. Statistical analysis was performed using GraphPad Prism 5 Non-linear transform log(agonist) vs. response—variable response function.\nFIGS. 4A and 4B show the results of the toxicity assay using A. platensis. EC50 of Cu^2+ ions for A. platensis was calculated at 0.2976 (in the 95% CI range of 0.17-0.5208 mg/L with an R squared value of 0.8654)."}, "A. platensis": {"tested_on": "A. platensis", "test": "Micro-evolution exposure (60 days) with fluctuation analysis", "type": "cell-based, Arthrospira platensis", "source_text": "The result from the fluctuation analysis after the selected period can explain the presence of resistant cells in two ways. Each result is interpreted as the independent consequence of two different phenomena of adaptation. In the first case, if resistant cells arose during the exposure to the selective agent (that is, by physiological adaptation), the variance in the number of cells per culture would be low because every cell is likely to have the same chance of developing resistance (set 1A; FIG. 3). Consequently, inter-culture (tube-to-tube) variation would be consistent with the Poisson model (that is, the variance of these replicate samples would be equal to the mean). By contrast, if resistant cells arose before the exposure to the selective agent (that is, genetic adaptation by rare spontaneous mutation occurring during the time in which the cultures grew from N0 to Nt), a high variation in the number of resistant cells per culture would be found (set 1B; FIG. 3). The tube-to-tube variation would not be consistent with the Poisson model (that is, variance>mean). Fluctuation analysis can likewise show the possibility of no adaptation if no resistant cells are observed after the incubation period in any of the experimental cultures. Since set 2 is the control of the experiment, variation is due only to random sampling and variation from tube to tube would be consistent with the Poisson model. […] If a similar variance: mean ratio between set 1 and set 2 is found, it confirms that resistant cells arose during the exposure to the selecting agent (that is, a post-selective mechanism).\nFIG. 2 illustrates a typical outline of the micro-evolution process. The experiment was performed based on the method from Gonzalez et al., (2012). Following FIG. 2, the culture was cloned through the isolation of a single alga or cyanobacterium, to avoid the inclusion of previous spontaneous mutations, followed by growth. Cloning was performed through microdilution in microwell plates, where the culture was diluted to the culture density of 1 microbe (micro-organism, MO) per 200 μl, providing a single cell in each well (although if microalgae/cyanobacteria can grow on solid medium, isolation on medium agar can also be performed). Propagation of the cloned culture was performed from 200 μl in increasing volume flasks with foam stoppers in a constant temperature room 18° C.+/−1° C., average light intensity 2800 lux with 8:16 dark:light cycle.\n10e2 MOs were then subcultured into 10 ml 40 vials (set 1), and cultures propagated further in vials and propagation flask (for set 2) (FIG. 3). Before exposure, controls ‘set 2’ were prepared through subculturing from flask into 20 vials. During the exposure stage, CuSO4 solution was added to the 60 vials of each concentration set to make-up the final concentrations of 0.3, 0.6, 1, 2 and 4 mg/Cu^2+ ions. Vials were stored under propagation conditions described above for a period of 60 days, with daily agitation, ensuring resistant cells could generate enough progeny to be detected. After the incubation period, fluctuation analysis was performed to identify those cultures which resistance arose through microevolution."}}}
{"smiles": "O=S(=O)([O-])[O-].[Cu+2]", "note": "[Cu^2+ ions, CuSO4]", "values": [{"measurement": "morphological changes (microscope)", "setting": "[1]; 1 mg/L Cu2+, after 24 hour", "value": "fragmentation of the trichomes"}, {"measurement": "EC50", "setting": "[1]; 72 hours, CuSO4 solutions, 95% CI 0.17-0.5208 mg/L, R squared 0.8654", "value": 0.2976, "unit": "µg/mL"}, {"measurement": "Outcome", "setting": "A. platensis; 0.3 mg/L Cu^2+ ion concentration", "value": "RSM"}, {"measurement": "Outcome", "setting": "A. platensis; 0.6 mg/L Cu^2+ ion concentration", "value": "RSM"}, {"measurement": "Outcome", "setting": "A. platensis; 1 mg/L Cu^2+ ion concentration", "value": "No adaptation"}, {"measurement": "Outcome", "setting": "A. platensis; 2 mg/L Cu^2+ ion concentration", "value": "No adaptation"}, {"measurement": "Outcome", "setting": "A. platensis; 4 mg/L Cu^2+ ion concentration", "value": "No adaptation"}]}
